molecular target: T1, human MRGPRX2 (Homo sapiens, UniProt Q96LB1); experiment: Ca2+ mobilization assay (FLIPR TETRA): inhibition of Cortistatin-14 mediated MRGPRX2 activation
T1 sequence (Q96LB1 1-330): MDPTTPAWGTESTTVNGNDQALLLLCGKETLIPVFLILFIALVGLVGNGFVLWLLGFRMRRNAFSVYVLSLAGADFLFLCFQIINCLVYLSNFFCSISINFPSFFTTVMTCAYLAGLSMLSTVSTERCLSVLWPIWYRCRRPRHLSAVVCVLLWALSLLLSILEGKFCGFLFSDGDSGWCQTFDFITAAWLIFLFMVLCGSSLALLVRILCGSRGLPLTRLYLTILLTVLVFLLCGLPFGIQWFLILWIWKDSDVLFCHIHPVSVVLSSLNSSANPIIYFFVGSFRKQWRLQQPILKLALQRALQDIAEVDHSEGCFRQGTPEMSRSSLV

IC50	Compound
≤ 10 nM	C[C@@H](C(=O)Nc1ccc(Oc2ccc(F)cc2)cn1)N1CCC(F)(F)[C@@H](c2ccc(=O)[nH]c2)C1 [Example 5, (S)-2-((S)-4,4-difluoro-3-(6-oxo-1,6-dihydropyridin-3-yl)piperidin-1-yl)-N-(5-(4-fluorophenoxy)pyridin-2-yl)propanamide]
≤ 10 nM	C[C@@H](C(=O)Nc1ccc(Oc2ccccc2)cn1)N1CCC(F)(F)[C@@H](c2ccc(=O)[nH]c2)C1 [Example 6, (S)-2-((S)-4,4-difluoro-3-(6-oxo-1,6-dihydropyridin-3-yl)piperidin-1-yl)-N-(5-phenoxypyridin-2-yl)propanamide]
≤ 10 nM	C[C@@H](C(=O)Nc1ccc(Cc2ccccc2)cn1)N1CCC(F)(F)[C@@H](c2ccc(=O)[nH]c2)C1 [Example 7, (S)-N-(5-benzylpyridin-2-yl)-2-((S)-4,4-difluoro-3-(6-oxo-1,6-dihydropyridin-3-yl)piperidin-1-yl)propanamide]
10 to 100 nM	C[C@@H](C(=O)Nc1ccc(OCC2CC2)nn1)N1CCC(F)(F)[C@@H](c2ccc(=O)[nH]c2)C1 [Example 8, N-(6-(cyclopropylmeth-oxy)pyridazin-3-yl)-2-((S)-4,4-difluoro-3-(6-oxo-1,6-dihydropyridin-3-yl)piperidin-1-yl)propanamide]
10 to 100 nM	C[C@@H](C(=O)Nc1ccc(OC2CCCC2)cn1)N1CCC(F)(F)[C@@H](c2ccc(=O)[nH]c2)C1 [Example 9, (S)-N-(5-(cyclopentyloxy)pyridin-2-yl)-2-((S)-4,4-difluoro-3-(6-oxo-1,6-dihydropyridin-3-yl)piperidin-1-yl)propanamide]
10 to 100 nM	C[C@@H](C(=O)Nc1ccc(/C=C/C2CC2)cn1)N1CCC(F)(F)[C@@H](c2ccc(=O)[nH]c2)C1 [Example 10]
100 to 3160 nM	Cc1cccc(-c2ccc(NC(=O)[C@H](C)N3CCC(F)(F)[C@@H](c4ccc(=O)[nH]c4)C3)nc2)n1 [Example 11, (S)-2-((S)-4,4-difluoro-3-(6-oxo-1,6-dihydropyridin-3-yl)piperidin-1-yl)-N-(6-methyl-[2,3′-bipyridin]-6′-yl)propanamide]
10 to 100 nM	C[C@@H](C(=O)Nc1ccc(Cc2ccccc2)nn1)N1CCC(F)(F)[C@@H](c2ccc(=O)[nH]c2)C1 [Example 12, (S)-N-(6-benzylpyridazin-3-yl)-2-((S)-4,4-difluoro-3-(6-oxo-1,6-dihydropyridin-3-yl)piperidin-1-yl)propanamide]
10 to 100 nM	C[C@@H](C(=O)Nc1ccc(Cc2ccncc2)cn1)N1CCC(F)(F)[C@@H](c2ccc(=O)[nH]c2)C1 [Example 13, (S)-2-((S)-4,4-difluoro-3-(6-oxo-1,6-dihydropyridin-3-yl)piperidin-1-yl)-N-(5-(pyridin-4-ylmethyl)pyridin-2-yl)propanamide]
10 to 100 nM	C[C@@H](C(=O)Nc1ccc(C2CCCC2)cn1)N1CCC(F)(F)[C@@H](c2ccc(=O)[nH]c2)C1 [Example 14, (S)-N-(5-cyclopentyl-pyridin-2-yl)-2-((S)-4,4-difluoro-3-(6-oxo-1,6-dihydropyridin-3-yl)piperidin-1-yl)propanamide]
10 to 100 nM	C[C@@H](C(=O)Nc1ccc(C2CC2)cn1)N1CCC(F)(F)[C@@H](c2ccc(=O)[nH]c2)C1 [Example 15, (S)-N-(5-cyclopropyl-pyridin-2-yl)-2-((S)-4,4-difluoro-3-(6-oxo-1,6-dihydropyridin-3-yl)piperidin-1-yl)propanaraide]
10 to 100 nM	Cc1cccc(-c2ccc(NC(=O)[C@H](C)N3CCC(F)(F)[C@@H](c4ccc(=O)[nH]c4)C3)nc2)c1 [Example 16, (S)-2-((S)-4,4-difluoro-3-(6-oxo-1,6-dihydropyridin-3-yl)piperidin-1-yl)-N-(5-(m-tolyl)pyridin-2-yl)propanamide]
100 to 3160 nM	C[C@@H](C(=O)Nc1ccc2oc(C3CC3)nc2n1)N1CCC(F)(F)[C@@H](c2ccc(=O)[nH]c2)C1 [Example 17, (S)-N-(2-cyclopropyl-oxazolo[4,5-b]pyridin-5-yl)-2-((S)-4,4-difluoro-3-(6-oxo-1,6-dihydropyridin-3-yl)piperidin-1-yl)propanamide]
100 to 3160 nM	C[C@@H](C(=O)Nc1ccc(C2CCC2)cn1)N1CCC(F)(F)[C@@H](c2ccc(=O)[nH]c2)C1 [Example 18, (S)-N-(5-cyclobutylpyridin-2-yl)-2-((S)-4,4-difluoro-3-(6-oxo-1,6-dihydropyridin-3-yl)piperidin-1-yl)propanamide]
100 to 3160 nM	C[C@@H](C(=O)Nc1ccc(Oc2ccccc2)nn1)N1CCC(F)(F)[C@@H](c2ccc(=O)[nH]c2)C1 [Example 19, 2-((S)-4,4-difluoro-3-(6-oxo-1,6-dihydropyridin-3-yl)piperidin-1-yl)-N-(6-phenoxy-pyridazin-3-yl)propanamide]
100 to 3160 nM	Cc1ccccc1Oc1ccc(NC(=O)[C@H](C)N2CCC(F)(F)[C@@H](c3ccc(=O)[nH]c3)C2)nn1 [Example 20]
10 to 100 nM	CC(C(=O)Nc1ccc(CCC2CC2)cn1)N1CCC(F)(F)[C@@H](c2ccc(=O)[nH]c2)C1 (stereo partly drawn) [Example 21, N-(5-(2-cyclopropylethyl)pyridin-2-yl)-2-((S)-4,4-difluoro-3-(6-oxo-1,6-dihydropyridin-3-yl)piperidin-1-yl)propanamide]
100 to 3160 nM	C[C@@H](C(=O)Nc1ccc(OCc2ccccc2)cn1)N1CCC(F)(F)[C@@H](c2ccc(=O)[nH]c2)C1 [Example 22, (S)-N-(5-(benzyloxy)pyridin-2-yl)-2-((S)-4,4-difluoro-3-(6-oxo-1,6-dihydropyridin-3-yl)piperidin-1-yl)propanamide]
100 to 3160 nM	C[C@@H](C(=O)Nc1ccc(-c2ccccc2)cn1)N1CCC(F)(F)[C@@H](c2ccc(=O)[nH]c2)C1 [Example 23, (S)-2-((S)-4,4-difluoro-3-(6-oxo-1,6-dihydropyridin-3-yl)piperidin-1-yl)-N-(5-phenylpyridin-2-yl)propanamide]
100 to 3160 nM	CC(C(=O)Nc1ccc(OC2CCCCC2)cn1)N1CCC(F)(F)[C@@H](c2ccc(=O)[nH]c2)C1 (stereo partly drawn) [Example 24, N-(5-(cyclohexyloxy)pyridin-2-yl)-2-((S)-4,4-difluoro-3-(6-oxo-1,6-dihydropyridin-3-yl)piperidin-1-yl)propanamide]
100 to 3160 nM	C[C@@H](C(=O)Nc1ccc2cc(C3CC3)ccc2n1)N1CCC(F)(F)[C@@H](c2ccc(=O)[nH]c2)C1 [Example 25, (S)-N-(6-cyclopropylquino-lin-2-yl)-2-((S)-4,4-difluoro-3-(6-oxo-1,6-dihydropyridin-3-yl)piperidin-1-yl)propanamide]
100 to 3160 nM	CC(C)Oc1ccc(NC(=O)C(C)N2CCC(F)(F)[C@@H](c3ccc(=O)[nH]c3)C2)nc1 (stereo partly drawn) [Example 26, 2-((S)-4,4-difluoro-3-(6-oxo-1,6-dihydropyridin-3-yl)piperidin-1-yl)-N-(5-isopropoxy-pyridin-2-yl)propanamide]
100 to 3160 nM	CC(C(=O)Nc1ccc(CC2CCCCC2)cn1)N1CCC(F)(F)[C@@H](c2ccc(=O)[nH]c2)C1 (stereo partly drawn) [Example 27, N-(5-(cyclohexyl-methyl)pyridin-2-yl)-2-((S)-4,4-difluoro-3-(6-oxo-1,6-dihydropyridin-3-yl)piperidin-1-yl)propanamide]
100 to 3160 nM	C[C@@H](C(=O)Nc1ncc(OCC2CC2)cc1F)N1CCC(F)(F)[C@@H](c2ccc(=O)[nH]c2)C1 [Example 28, (S)-N-(5-(cyclopropyl-methoxy)-3-fluoropyridin-2-yl)-2-((S)-4,4-difluoro-3-(6-oxo-1,6-dihydropyridin-3-yl)piperidin-1-yl)propanamide]
